Test system: adjuvant-induced arthritis (Mycobacterium butyricum) in female Lewis rats
Assay: Development and severity of adjuvant-induced arthritis in female Lewis rats (paw volumes, radiographic scores)
Format: in vivo
Conditions: for Radiographic total scores of secondary paws compared with vehicle treated rats, in words: day 21, secondary paws; for Radiographic scores, Primary paws / Radiographic scores, Secondary paws / Increase in primary foot volume, Day 21 / Increase in secondary foot volume, Day 21: day 21; for Radiographic scores, Primary paws / Radiographic scores, Secondary paws: total score, maximum 26 per foot, high score = high inflammation, thrombin inhibitor 50 mg/kg/day, Indomethacin 1 mg/kg/day oral; for Increase in primary foot volume, Day 14 / Increase in primary foot volume, Day 21: primary (adjuvant-injected) paw; for Increase in primary foot volume, Day 14 / Increase in primary foot volume, Day 21 / Increase in secondary foot volume, Day 14 / Increase in secondary foot volume, Day 21: oral gavage daily, thrombin inhibitor 50 mg/kg, Indomethacin 1 mg/kg; for Increase in primary foot volume, Day 14: mercury displacement plethysmography; for Increase in secondary foot volume, Day 14 / Increase in secondary foot volume, Day 21: secondary (contralateral, not injected) paw
Protocol: The thrombin inhibitor 3-(2-phenylethylamino)-6-methyl-1-(2-amino-6-methyl-5-methylene-carboxamidomethylpyridinyl)-2-pyrazinone was evaluated to determine its effect on induced arthritis. Arthritis was induced by injection of female Lewis rats with Mycobacterium butyricum. The effect of the thrombin inhibitor was compared with the effect of Indomethacin and the effect of a vehicle control.
Fifty 7.5 week old female Lewis rats (body weight 149-174 grams) were included in the study. Forty rats were each injected with an emulsion containing 0.5 mg of Mycobacterium butyricum in 0.1 ml of light mineral oil, and a negative control group of 10 rats was not injected with adjuvant.
Ten of the rats receiving Mycobacterium butyricum further received Indomethacin by oral gavage at a total daily dose of 1 mg/kg. Ten of the rats receiving Mycobacterium butyricum further received the thrombin inhibitor by oral gavage at a total daily dose of 50 mg/kg. Twenty of the rats receiving Mycobacterium butyricum further received a vehicle control of sterile distilled water.
Body weights, primary and secondary paw volumes, and lateral radiographs were determined before and at various time points including 21 days following adjuvant injection. The primary paw was injected with the Mycobacterium butyricum while the secondary (contralateral) paw was not injected. Paw volumes were determined by mercury displacement plethysmography. Lateral radiographs were obtained under Ketamine and Xylazine anesthesia.
Radiographs were made of both hind paws on days 0 and 21 and evaluated for changes in the soft and hard tissues. The following radiographic changes were graded numerically according to severity:increased soft tissue volume (0-4), narrowing or widening of joint spaces ([…]), subchondral erosion (0-3), periosteal reaction (0-4), osteolysis (0-4), subluxation (0-3), and degenerative joint changes (0-3). The maximum possible score for each foot was 26. High scores correspond with high levels of inflammation.

Row | SMILES | Radiographic total scores of primary paws compared with vehicle treated rats, in words (day 21, primary paws, versus vehicle) | Radiographic total scores of secondary paws compared with vehicle treated rats, in words (versus vehicle) | Radiographic scores, Primary paws | Radiographic scores, Secondary paws | Increase in primary foot volume, Day 14 [µL] | Increase in primary foot volume, Day 21 [µL] | Increase in secondary foot volume, Day 14 [µL] | Increase in secondary foot volume, Day 21 [µL] | Effect on the primary paw (foot volume), in words (primary paw, thrombin inhibitor 50 mg/kg/day oral gavage) | Anti-inflammatory effect on the secondary paw (foot volume), in words (secondary paw, thrombin inhibitor 50 mg/kg/day oral gavage)
1 | COc1ccc2c(c1)c(CC(=O)O)c(C)n2C(=O)c1ccc(Cl)cc1 [Indomethacin, reference compound] | significantly less | significantly less | 4.6 ± 1.6 | 3.5 ± 1.4 | 726 ± 174 | 622 ± 156 | 246 ± 162 | 253 ± 138 | – | –
2 | Cc1nc(N)ccc1CNC(=O)Cn1c(C)cnc(NCCc2ccccc2)c1=O [Thrombin inhibitor, 3-(2-phenylethylamino)-6-methyl-1-(2-amino-6-methyl-5-methylene-carboxamidomethylpyridinyl)-2-pyrazinone] | – | significantly less | 14.0 ± 3.3 | 3.8 ± 3.79 | 1591 ± 318 | 1997 ± 605 | 382 ± 312 | 704 ± 289 | insignificant effect | significant anti-inflammatory effect

— patent publication US6362190B1, “Method for treating inflammatory diseases by administering a thrombin inhibitor” (Merck & Co., Inc., priority 1998, dated 2002)
